Source: BindingDB's records for doi:10.1021/jm0209984 (Universit&#224, 2003)

Assay: Concentration required to achieve 50% protection of MT-4 cell from the HIV-1 induced cytopathogenicity was determined by the MTT method

**Q.** Which EC50 does the source give for `O=C(c1ccc(Cl)cc1Cl)N(C(=S)OCCOc1ccccc1)c1ccccc1` [(2,4-Dichloro-benzoyl)-phenyl-thiocarbamic acid O-(2-phenoxy-ethyl) ester] here?
**A.** The EC50 was 11.6 µM.

**Q.** For `O=C1c2ccccc2C(=O)N1CCOC(=S)N(C(=O)c1cccs1)c1ccccc1Cl` [(2-Chloro-phenyl)-(thiophene-2-carbonyl)-thiocarbamic acid O-[2-(1,3-dioxo-1,3-dihydro-isoindol-2-yl)-ethyl] ester], which EC50 is on record?
**A.** The EC50 was 11 µM.

**Q.** Which EC50 does the source give for `CCc1ccccc1N(C(=O)c1cccs1)C(=S)OCCN1C(=O)c2ccccc2C1=O` [(2-Ethyl-phenyl)-(thiophene-2-carbonyl)-thiocarbamic acid O-[2-(1,3-dioxo-1,3-dihydro-isoindol-2-yl)-ethyl] ester] here?
**A.** Its EC50 is 11 µM.

**Q.** Which EC50 does the source give for `COc1ccccc1N(C(=O)c1cccs1)C(=S)OCCN1C(=O)c2ccccc2C1=O` [(2-Methoxy-phenyl)-(thiophene-2-carbonyl)-thiocarbamic acid O-[2-(1,3-dioxo-1,3-dihydro-isoindol-2-yl)-ethyl] ester] here?
**A.** The EC50 was 11 µM.

**Q.** Which EC50 does the source give for `CC(COc1ccccc1)OC(=S)N(C(=O)COc1ccccc1)c1ccccc1` (centres undefined) [(2-Phenoxy-acetyl)-phenyl-thiocarbamic acid O-(1-methyl-2-phenoxy-ethyl) ester] here?
**A.** Its EC50 is 1.4 µM.

**Q.** Which EC50 does the source give for `O=C(COc1ccccc1)N(C(=S)OCCOc1ccccc1)c1ccccc1` [(2-Phenoxy-acetyl)-phenyl-thiocarbamic acid O-(2-phenoxy-ethyl) ester] here?
**A.** Its EC50 is 6 µM.

**Q.** For `O=C(c1cc(Cl)cc(Cl)c1)N(C(=S)OCCOc1ccccc1)c1ccccc1` [(3,5-Dichloro-benzoyl)-phenyl-thiocarbamic acid O-(2-phenoxy-ethyl) ester], which EC50 is on record?
**A.** Its EC50 is 8.8 µM.

**Q.** For `CC(=O)c1cccc(N(C(=O)c2cccs2)C(=S)OCCN2C(=O)c3ccccc3C2=O)c1` [(3-Acetyl-phenyl)-(thiophene-2-carbonyl)-thiocarbamic acid O-[2-(1,3-dioxo-1,3-dihydro-isoindol-2-yl)-ethyl] ester], which EC50 is on record?
**A.** Its EC50 is 6 µM.

**Q.** With `O=C1c2ccccc2C(=O)N1CCOC(=S)N(C(=O)c1cccs1)c1cccc(Br)c1` [(3-Bromo-phenyl)-(thiophene-2-carbonyl)-thiocarbamic acid O-[2-(1,3-dioxo-1,3-dihydro-isoindol-2-yl)-ethyl] ester] as the molecule, how does the EC50 read?
**A.** The EC50 was 1.2 µM.

**Q.** Which EC50 does the source give for `CC(COc1ccccc1)OC(=S)N(C(=O)c1cccs1)c1cccc(Cl)c1` (centres undefined) [(3-Chloro-phenyl)-(thiophene-2-carbonyl)-thiocarbamic acid O-(1-methyl-2-phenoxy-ethyl) ester] here?
**A.** The EC50 was 11 µM.

**Q.** With `O=C1c2ccccc2C(=O)N1CCOC(=S)N(C(=O)c1cccs1)c1cccc(Cl)c1` [(3-Chloro-phenyl)-(thiophene-2-carbonyl)-thiocarbamic acid O-[2-(1,3-dioxo-1,3-dihydro-isoindol-2-yl)-ethyl] ester] as the molecule, how does the EC50 read?
**A.** Its EC50 is 6 µM.

**Q.** Which EC50 does the source give for `O=C1c2ccccc2C(=O)N1CCOC(=S)N(C(=O)c1cccs1)c1cccc(F)c1` [(3-Fluoro-phenyl)-(thiophene-2-carbonyl)-thiocarbamic acid O-[2-(1,3-dioxo-1,3-dihydro-isoindol-2-yl)-ethyl] ester] here?
**A.** Its EC50 is 11 µM.

**Q.** For `COc1cccc(N(C(=O)c2cccs2)C(=S)OCCN2C(=O)c3ccccc3C2=O)c1` [(3-Methoxy-phenyl)-(thiophene-2-carbonyl)-thiocarbamic acid O-[2-(1,3-dioxo-1,3-dihydro-isoindol-2-yl)-ethyl] ester], which EC50 is on record?
**A.** The EC50 was 3.5 µM.

**Q.** Which EC50 does the source give for `CC(COc1ccccc1)OC(=S)N(C(=O)c1cccc([N+](=O)[O-])c1)c1ccccc1` (centres undefined) [(3-Nitro-benzoyl)-phenyl-thiocarbamic acid O-(1-methyl-2-phenoxy-ethyl) ester] here?
**A.** The EC50 was 3.6 µM.

**Q.** With `O=C1c2ccccc2C(=O)N1CCOC(=S)N(C(=O)c1cccs1)c1cccc([N+](=O)[O-])c1` [(3-Nitro-phenyl)-(thiophene-2-carbonyl)-thiocarbamic acid O-[2-(1,3-dioxo-1,3-dihydro-isoindol-2-yl)-ethyl] ester] as the molecule, how does the EC50 read?
**A.** Its EC50 is 0.38 µM.

**Q.** For `O=C(c1ccc(Cl)c([N+](=O)[O-])c1)N(C(=S)OCCOc1ccccc1)c1ccccc1` [(4-Chloro-3-nitro-benzoyl)-phenyl-thiocarbamic acid O-(2-phenoxy-ethyl) ester], which EC50 is on record?
**A.** Its EC50 is 7.6 µM.

**Q.** For `O=C(c1ccc(Cl)cc1)N(C(=S)OCCOc1ccccc1)c1ccccc1` [(4-Chloro-benzoyl)-phenyl-thiocarbamic acid O-(2-phenoxy-ethyl) ester], which EC50 is on record?
**A.** The EC50 was 10.3 µM.

**Q.** For `O=C(c1ccc(Cl)cc1)N(C(=S)OCCc1ccccc1)c1ccccc1` [(4-Chloro-benzoyl)-phenyl-thiocarbamic acid O-phenethyl ester], which EC50 is on record?
**A.** Its EC50 is 4 µM.

**Q.** Which EC50 does the source give for `CC(COc1ccccc1)OC(=S)N(C(=O)c1cccs1)c1ccc(Cl)cc1` (centres undefined) [(4-Chloro-phenyl)-(thiophene-2-carbonyl)-thiocarbamic acid O-(1-methyl-2-phenoxy-ethyl) ester] here?
**A.** Its EC50 is 11 µM.

**Q.** With `CCN(CC)c1ccc(N(C(=O)c2cccs2)C(=S)OCCN2C(=O)c3ccccc3C2=O)cc1` [(4-Diethylamino-phenyl)-(thiophene-2-carbonyl)-thiocarbamic acid O-[2-(1,3-dioxo-1,3-dihydro-isoindol-2-yl)-ethyl] ester] as the molecule, how does the EC50 read?
**A.** The EC50 was 11 µM.

**Q.** Which EC50 does the source give for `CCc1ccc(N(C(=O)c2ccco2)C(=S)OCCN2C(=O)c3ccccc3C2=O)cc1` [(4-Ethyl-phenyl)-(furan-2-carbonyl)-thiocarbamic acid O-[2-(1,3-dioxo-1,3-dihydro-isoindol-2-yl)-ethyl] ester] here?
**A.** Its EC50 is 0.03 µM.

**Q.** With `O=C1c2ccccc2C(=O)N1CCOC(=S)N(C(=O)c1cccs1)c1ccc(F)cc1` [(4-Fluoro-phenyl)-(thiophene-2-carbonyl)-thiocarbamic acid O-[2-(1,3-dioxo-1,3-dihydro-isoindol-2-yl)-ethyl] ester] as the molecule, how does the EC50 read?
**A.** The EC50 was 0.1 µM.

**Q.** Which EC50 does the source give for `O=C1c2ccccc2C(=O)N1CCOC(=S)N(C(=O)c1cccs1)c1ccc(I)cc1` [(4-Iodo-phenyl)-(thiophene-2-carbonyl)-thiocarbamic acid O-[2-(1,3-dioxo-1,3-dihydro-isoindol-2-yl)-ethyl] ester] here?
**A.** The EC50 was 0.01 µM.

**Q.** For `Cc1ccc(C(=O)N(C(=S)OCCOc2ccccc2)c2ccccc2)cc1` [(4-Methyl-benzoyl)-phenyl-thiocarbamic acid O-(2-phenoxy-ethyl) ester], which EC50 is on record?
**A.** The EC50 was 9.9 µM.

**Q.** With `CC(COc1ccccc1)OC(=S)N(C(=O)c1cccs1)c1ccc([N+](=O)[O-])cc1` (centres undefined) [(4-Nitro-phenyl)-(thiophene-2-carbonyl)-thiocarbamic acid O-(1-methyl-2-phenoxy-ethyl) ester] as the molecule, how does the EC50 read?
**A.** Its EC50 is 6 µM.

**Q.** With `O=C1c2ccccc2C(=O)N1CCOC(=S)N(C(=O)c1cccs1)c1ccc([N+](=O)[O-])cc1` [(4-Nitro-phenyl)-(thiophene-2-carbonyl)-thiocarbamic acid O-[2-(1,3-dioxo-1,3-dihydro-isoindol-2-yl)-ethyl] ester] as the molecule, how does the EC50 read?
**A.** Its EC50 is 0.01 µM.

**Q.** Which EC50 does the source give for `O=C1c2ccccc2C(=O)N1CCOC(=S)N(C(=O)c1ccco1)c1ccc([N+](=O)[O-])cc1` [(Furan-2-carbonyl)-(4-nitro-phenyl)-thiocarbamic acid O-[2-(1,3-dioxo-1,3-dihydro-isoindol-2-yl)-ethyl] ester] here?
**A.** The EC50 was 0.008 µM.

**Q.** For `CC(COc1ccccc1)OC(=S)N(C(=O)c1ccco1)c1ccccc1` (centres undefined) [(Furan-2-carbonyl)-phenyl-thiocarbamic acid O-(1-methyl-2-phenoxy-ethyl) ester], which EC50 is on record?
**A.** The EC50 was 1.3 µM.

**Q.** Which EC50 does the source give for `O=C(c1ccco1)N(C(=S)OCCOc1ccccc1)c1ccccc1` [(Furan-2-carbonyl)-phenyl-thiocarbamic acid O-(2-phenoxy-ethyl) ester] here?
**A.** Its EC50 is 8.4 µM.
